Source: US20260042753A1 (Merck Patent GmbH, priority 2019, published 2026)
Where two headings read alike, the source gives them in different places.

Columns and labels:
c-Kit(V654A) = c-Kit(V654A) (Homo sapiens, UniProt P10721, V654A); experiment: c-Kit(V654A) assay; type: biochemical
Procedure: c-Kit(V654A) (N-terminal GST-tagged, recombinant human c-Kit, amino acids 544-end containing the V654A mutation) is incubated with 8 mM MOPS pH 7.0, 0.2 mM EDTA, 250 μM GGMEDIYEFMGGKKK, 10 mM MgAcetate and [gamma-33P-ATP](specific activity approx. 500 cpm/pmol, concentration 200 μM). The reaction is initiated by the addition of the MgATP mix. After incubation for 40 minutes at room temperature, the reaction is stopped by the addition of 3% phosphoric acid solution. 10 μL of the reaction is then spotted onto a P30 filtermat and washed three times for 5 minutes in 75 mM phosphoric acid and once in methanol prior to drying and scintillation counting.

[1] = target: mutant cKIT (560-576 and V654A) in GIST430/654 cell line (Homo sapiens (Human), UniProt P10721, DEL560-576/V654A); experiment: Cellular testing of cKIT mutant inhibitors: phospho-Y307-cKIT Luminex assay in GIST430/654 cells; type: cell-based; settings: read-out: GIST 430/654 IC50
Procedure: Assay Principle for Cellular Testing of cKIT Mutant Inhibitors
The GIST430/654 cell line expressing mutated constitutively active cKIT receptor tyrosine kinase ([…]560-576 and V654A) was employed for assessing cellular potency of compounds. Cellular activity of mutant cKIT was determined by the degree of cKIT autophosphorylation at tyrosine 307 using a Luminex-based bead assay. GIST430/654 cells were plated with 25,000 cells per well of a 96-well plate in 100 μl medium (85% IMDM/15% FCS supplemented with 100 nM Imatinib). At the following day compounds were added in a serial dilution for 45 min. Then, cells were lysed with 90 μl lysis buffer (20 mM Hepes pH 7.5, 200 mM NaCl, 1.5 mM MgCl2×6H2O, 0.4 mM EDTA, 1% Triton-X-100, 1% Phosphatase-Inhibitor II, 20 mM D-Glycerolphosphat, 0.1% Protease-Inhibitor Cocktail III, 0.01% Benzonase) und lysates were cleared by centrifugation through a 96-well filter plate (0.65 μm). Samples were incubated with Luminex-beads which were coupled with an anti-total cKIT antibody overnight at 4° C. under gentle agitation. For detection of phospho-Y307-cKIT a phosphospecific antibody and a species-specific PE-labelled secondary antibody were added. The amount of phospho-Y307-cKIT was determined in a Luminex 200 instrument measuring 100 events per well within 60 seconds.
Counts from samples treated with compounds were calculated as percent of control from solvent treated (0.3% DMSO) samples. Dose-response curves were fitted and IC50 values were determined using Genedata Screener software.

[2] = Table 1, cKIT autophosphorylation, compounds 45 min
[3] = Table 2, corresponding triazole derivatives

Chain of mutant cKIT (560-576 and V654A) in GIST430/654 cell line (P10721 other isoform, or with tags, fused parts or gaps V654A/del 1-25/del 560-576 limits assumed): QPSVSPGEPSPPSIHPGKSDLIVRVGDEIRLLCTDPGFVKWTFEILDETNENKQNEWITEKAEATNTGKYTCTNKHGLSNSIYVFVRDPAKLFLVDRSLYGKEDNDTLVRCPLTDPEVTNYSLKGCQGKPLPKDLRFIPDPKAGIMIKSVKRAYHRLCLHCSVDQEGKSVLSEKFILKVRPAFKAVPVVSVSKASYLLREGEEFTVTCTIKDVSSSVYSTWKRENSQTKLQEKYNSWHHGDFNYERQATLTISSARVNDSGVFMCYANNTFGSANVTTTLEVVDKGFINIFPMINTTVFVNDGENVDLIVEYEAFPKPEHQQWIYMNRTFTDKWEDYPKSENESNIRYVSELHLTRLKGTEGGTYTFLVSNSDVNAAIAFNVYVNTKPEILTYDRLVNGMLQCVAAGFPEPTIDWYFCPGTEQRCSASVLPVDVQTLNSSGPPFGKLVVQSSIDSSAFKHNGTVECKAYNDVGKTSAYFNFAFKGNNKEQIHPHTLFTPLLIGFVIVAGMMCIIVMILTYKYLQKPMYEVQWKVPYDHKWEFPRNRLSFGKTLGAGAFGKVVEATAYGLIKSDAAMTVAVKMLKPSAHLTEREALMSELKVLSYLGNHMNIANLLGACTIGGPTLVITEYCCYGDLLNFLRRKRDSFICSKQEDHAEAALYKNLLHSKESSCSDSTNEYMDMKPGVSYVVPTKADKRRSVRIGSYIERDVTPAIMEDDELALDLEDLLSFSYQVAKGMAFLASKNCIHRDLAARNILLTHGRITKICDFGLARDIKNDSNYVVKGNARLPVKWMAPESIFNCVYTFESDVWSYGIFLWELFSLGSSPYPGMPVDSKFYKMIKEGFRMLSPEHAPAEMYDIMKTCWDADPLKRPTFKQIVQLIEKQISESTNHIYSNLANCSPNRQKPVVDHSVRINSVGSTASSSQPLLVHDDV

Structure (SMILES) | IC50 (c-Kit(V654A); Table 1, 200 μM ATP) | IC50 [1, 2] | IC50 (c-Kit(V654A); [3]) | IC50 [1, 3]
COCCOc1cc2[nH]nc(-c3cc(-c4ccc(C(=O)N5CC(N6CCOCC6)C5)cc4)no3)c2cc1Cl [A64, (4-{5-[5-chloro-6-(2-methoxy-ethoxy)-1H-indazol-3-yl]-isoxazol-3-yl}-phenyl)-(3-morpholin-4-yl-azetidin-1-yl)-methanone] | 0.53 nM | 32 nM |  | 
COCCOc1cc2[nH]nc(-c3cc(-c4ccc(N5CC[C@@H]6[C@H]5CCCN6C)cc4)no3)c2cc1F (relative stereo) [A124, 3-(3-{4-[(cis)-4-methyl-octahydro-1H-pyrrolo[3,2-b]pyridin-1-yl]phenyl}-1,2-oxazol-5-yl)-5-fluoro-6-(2-methoxyethoxy)-1H-indazole] | 0.35 nM | 85 nM |  | 
COCCOc1cc2[nH]nc(-c3cc(-c4ccc(C(=O)N5CC(N6CCS(=O)(=O)CC6)C5)cc4)no3)c2cc1F [A57, 4-[1-(4-{5-[5-fluoro-6-(2-methoxyethoxy)-1H-indazol-3-yl]-1,2-oxazol-3-yl}benzoyl)azetidin-3-yl]-1lambda6-thiomorpholine-1,1-dione] | 1.9 nM | 180 nM |  | 
COCCOc1cc2[nH]nc(-c3cc(-c4ccc(C(=O)N5CC6(COC6)C5)cc4)no3)c2cc1F [A74, 5-fluoro-6-(2-methoxyethoxy)-3-[3-(4-{2-oxa-6-azaspiro[3.3]heptane-6-carbonyl}phenyl)-1,2-oxazol-5-yl]-1H-indazole] | 1.3 nM | 52 nM |  | 
COCCOc1cc2[nH]nc(-c3cc(-c4ccc(C(=O)N5CC[C@@H]6COC[C@@H]6C5)cc4)no3)c2cc1F (relative stereo) [A215, 3-(3-{4-[(cis)-octahydrofuro[3,4-c]pyridine-5-carbonyl]phenyl}-1,2-oxazol-5-yl)-5-fluoro-6-(2-methoxyethoxy)-1H-indazole] | 0.76 nM | 35 nM |  | 
COCCOc1cc2[nH]nc(-c3cc(-c4ccc(C(=O)N5CC(O)(c6cccnc6)C5)cc4)no3)c2cc1F [A221, 1-(4-{5-[5-fluoro-6-(2-methoxyethoxy)-1H-indazol-3-yl]-1,2-oxazol-3-yl}benzoyl)-3-(pyridin-3-yl)azetidin-3-ol] | 0.54 nM | 120 nM |  | 
COCCOc1cc2[nH]nc(-c3cn(-c4ccc(C(=O)N5CCOC[C@@H]5C)cc4)nn3)c2cc1F [reference compound] |  |  | 6.9 nM | 230 nM
COCCOc1cc2[nH]nc(-c3cc(-c4ccc(C(=O)N5C6COCC5C6)cc4)no3)c2cc1F [A182, 5-fluoro-6-(2-methoxyethoxy)-3-[3-(4-{3-oxa-6-azabicyclo[3.1.1]heptane-6-carbonyl}phenyl)-1,2-oxazol-5-yl]-1H-indazole] | 0.94 nM | 38 nM |  | 
COCCOc1cc2[nH]nc(-c3cc(-c4ccc(-n5cncn5)cc4)no3)c2cc1F [A21, 5-fluoro-6-(2-methoxyethoxy)-3-{3-[4-(1H-1,2,4-triazol-1-yl)phenyl]-1,2-oxazol-5-yl}-1H-indazole] | 12 nM | 570 nM |  | 
COCCOc1cc2[nH]nc(-c3cc(-c4ccc(C(=O)N5CC(N6CCO[C@@H](C)C6)C5)cc4)no3)c2cc1F [A210, 5-fluoro-6-(2-methoxyethoxy)-3-[3-(4-{3-[(2S)-2-methylmorpholin-4-yl]azetidine-1-carbonyl}phenyl)-1,2-oxazol-5-yl]-1H-indazole] | 0.8 nM | 30 nM |  | 
COCCOc1cc2[nH]nc(-c3cc(-c4ccc(C(=O)N5CC(O)(c6ccncc6)C5)cc4)no3)c2cc1F [A206, 1-(4-{5-[5-fluoro-6-(2-methoxyethoxy)-1H-indazol-3-yl]-1,2-oxazol-3-yl}benzoyl)-3-(pyridin-4-yl)azetidin-3-ol] | 0.67 nM | 79 nM |  | 
COCCOc1cc2[nH]nc(-c3cc(-c4ccc(C(=O)N5CCN(C6COC6)CC5C)cc4)no3)c2cc1F (stereo not shown) [A174, 5-fluoro-6-(2-methoxyethoxy)-3-(3-{4-[2-methyl-4-(oxetan-3-yl)piperazine-1-carbonyl]phenyl}-1,2-oxazol-5-yl)-1H-indazole] | 1.3 nM | 35 nM |  | 

Results, then the compound that gave them:

IC50 (c-Kit(V654A); Table 1, 200 μM ATP) | IC50 [1, 2] | IC50 (c-Kit(V654A); [3]) | IC50 [1, 3] | Structure (SMILES)
5.3 nM | 130 nM |  |  | COCCOc1cc2[nH]nc(-c3cc(-c4ccc(NC(C)=O)cc4)no3)c2cc1Cl [A17, N-(4-{5-[5-chloro-6-(2-methoxyethoxy)-1H-indazol-3-yl]-1,2-oxazol-3-yl}phenyl)acetamide]
2.4 nM | 77 nM |  |  | COCCOc1cc2[nH]nc(-c3cc(-c4ccc(N=S(C)(C)=O)cc4)no3)c2cc1F [A47, [(4-{5-[5-fluoro-6-(2-methoxyethoxy)-1H-indazol-3-yl]-1,2-oxazol-3-yl}phenyl)imino]dimethyl-lambda6-sulfanone]
3 nM | 65 nM |  |  | COCCOc1cc2[nH]nc(-c3cc(-c4ccc(N5CCS(=O)(=O)CC5)nc4)no3)c2cc1F [A131, 4-(5-{5-[5-fluoro-6-(2-methoxyethoxy)-1H-indazol-3-yl]-1,2-oxazol-3-yl}pyridin-2-yl)-1lambda6-thiomorpholine-1,1-dione]
1 nM | 73 nM |  |  | COCCOc1cc2[nH]nc(-c3cc(-c4ccc(C(=O)N5Cc6cncnc6C5)cc4)no3)c2cc1F [A207, 5-fluoro-6-(2-methoxyethoxy)-3-[3-(4-{5H,6H,7H-pyrrolo[3,4-d]pyrimidine-6-carbonyl}phenyl)-1,2-oxazol-5-yl]-1H-indazole]
 |  | 11 nM | 580 nM | COCCOc1cc2[nH]nc(-c3cn(-c4ccc(C(=O)N5CC(F)C5)cc4)nn3)c2cc1F [reference compound]
0.7 nM | 77 nM |  |  | COCCOc1cc2[nH]nc(-c3cc(-c4ccc(C(=O)N5CCOC[C@@H]5CO)cc4)no3)c2cc1F [A106, [(3S)-4-(4-{5-[5-fluoro-6-(2-methoxyethoxy)-1H-indazol-3-yl]-1,2-oxazol-3-yl}benzoyl)morpholin-3-yl]methanol]
0.96 nM | 58 nM |  |  | COCCOc1cc2[nH]nc(-c3cc(-c4ccc(C(=O)N5CCNCC5)cc4)no3)c2cc1F [A46, 5-fluoro-6-(2-methoxyethoxy)-3-{3-[4-(piperazine-1-carbonyl)phenyl]-1,2-oxazol-5-yl}-1H-indazole]
2.2 nM | 120 nM |  |  | COCCOc1cc2[nH]nc(-c3cc(-c4ccc(C(=O)N5CCOCC5)cc4)on3)c2cc1F [A43, (4-{3-[5-fluoro-6-(2-methoxy-ethoxy)-1H-indazol-3-yl]-isoxazol-5-yl}-phenyl)-morpholin-4-yl-methanone]
6 nM | 75 nM |  |  | COCCOc1cc2[nH]nc(-c3cc(-c4ccc(-n5ncccc5=O)cc4)no3)c2cc1F [A142, 2-(4-{5-[5-fluoro-6-(2-methoxyethoxy)-1H-indazol-3-yl]-1,2-oxazol-3-yl}phenyl)-2,3-dihydropyridazin-3-one]
6.9 nM | 670 nM |  |  | COCCOc1cc2[nH]nc(-c3cc(-c4ccc(C(=O)N(C)C)nc4)no3)c2cc1F [A99, 5-{5-[5-fluoro-6-(2-methoxy-ethoxy)-1H-indazol-3-yl]-isoxazol-3-yl}-pyridine-2-carboxylic acid dimethylamide]
0.44 nM | 37 nM |  |  | COCCOc1cc2[nH]nc(-c3cc(-c4ccc(C(=O)N5C[C@H]6COCC[C@H]6C5)cc4)no3)c2cc1F (relative stereo) [A214, 3-(3-{4-[(cis)-octahydropyrano[3,4-c]pyrrole-2-carbonyl]phenyl}-1,2-oxazol-5-yl)-5-fluoro-6-(2-methoxyethoxy)-1H-indazole]
1.7 nM | 80 nM |  |  | COCCOc1cc2[nH]nc(-c3cc(-c4ccc(N=S5(=O)CCNCC5)cc4)no3)c2cc1F [A129, 1-[(4-{5-[5-fluoro-6-(2-methoxyethoxy)-1H-indazol-3-yl]-1,2-oxazol-3-yl}phenyl)imino]-1lambda6-thiomorpholin-1-one]
5.2 nM | 350 nM |  |  | COCCOc1cc2[nH]nc(-c3cc(-c4ccc(C(=O)NCc5nc6ccccc6[nH]5)cc4)no3)c2cc1F [A156, N-[(1H-1,3-benzodiazol-2-yl)methyl]-4-{5-[5-fluoro-6-(2-methoxyethoxy)-1H-indazol-3-yl]-1,2-oxazol-3-yl}benzamide]
0.73 nM | 130 nM |  |  | COCCOc1cc2[nH]nc(-c3cc(-c4ccc(C(=O)N5CCN(C)CC5CO)cc4)no3)c2cc1F (stereo not shown) [A54, [1-(4-{5-[5-fluoro-6-(2-methoxyethoxy)-1H-indazol-3-yl]-1,2-oxazol-3-yl}benzoyl)-4-methylpiperazin-2-yl]methanol]
